In patent US20130045983A1, “HSP90 INHIBITORS FOR THERAPEUTIC TREATMENT” (Novartis AG, priority 2008, published 2013):

How the values were obtained:
Format in all cases: cell-based
MCF-7 = assay: Cell proliferation assay, MCF-7 (breast); settings: Homo sapiens, MCF7, 72 hours in presence of compound
Procedure: (§1) Seventeen cancer derived cell lines are used (GTL-16, N87, H1975, A549, H69, A2780, PC3, BT474, SKBR3, MCF-7, A375, MV4;11, K562, KM12L4A, H929, OPM-2 and KMS-11) to test the effect of (R)-2-amino-7-[2-(6-methoxy-pyridin-2-yl)-phenyl]-4-methyl-7,8-dihydro-6H-pyrido[4,3-d]pyrimidin-5-one. These cell lines cover the following 9 tumor types: Gastric, Lung, Ovarian, Prostate, Breast, Melanoma, Leukemia, Colon and Multiple myeloma. After division and medium change, cells from stock culture are seeded on cell plates and cultured for about 18 hours to allow cell growth and attachment before starting the assay. Then on the first day of the assay, (R)-2-amino-7-[2-(6-methoxy-pyridin-2-yl)-phenyl]-4-methyl-7,8-dihydro-6H-pyrido[4,3-d]pyrimidin-5-one is added to the medium at various concentrations. Cells are cultured up to 72 or 96 hours and cell proliferation is determined using commercially available cell proliferation kits.
(§2) Table 1 relates to the concentration in nM of (R)-2-amino-7-[2-(6-methoxy-pyridin-2-yl)-phenyl]-4-methyl-7,8-dihydro-6H-pyrido[4,3-d]pyrimidin-5-one which inhibits cell proliferation by 50% (IC50). […]

MAXF 1384 = assay: Clonogenic assay, MAXF 1384; settings: Homo sapiens, Breast, Adenocarcinoma, soft agar, read-out: IC50 (colony formation)
Procedure: (§3) The anticancer activity of (R)-2-amino-7-[2-(6-methoxy-pyridin-2-yl)-phenyl]-4-methyl-7,8-dihydro-6H-pyrido[4,3-d]pyrimidin-5-one is evaluated in 30 human tumor xenografts in vitro using a clonogenic assay. In this assay, human cells derived from cancer patients are evaluated for the capacity of (R)-2-amino-7-[2-(6-methoxy-pyridin-2-yl)-phenyl]-4-methyl-7,8-dihydro-6H-pyrido[4,3-d]pyrimidin-5-one to inhibit the formation of 3 dimensional colonies. […] The tumor xenografts which have never been cultured in cell culture plastic dishes are isolated from nude mice. Tumor cell suspensions are prepared and incubated in 24 well plates containing layers of soft agar. Under these conditions a special subpopulation of cells selectively grows to colonies. (R)-2-amino-7-[2-(6-methoxy-pyridin-2-yl)-phenyl]-4-methyl-7,8-dihydro-6H-pyrido[4,3-d]pyrimidin-5one is tested in 6 concentrations up to 1000 nM. The tumor test panel comprises 1 to 10 models of 12 different human tumor types, which were bladder cancer, colon, gastric, non small cell lung (adeno, squamous cell, and large cell), small cell lung, mammary, ovary, and prostate cancer, as well as leukemia, lymphoma, melanoma, and sarcoma. Antitumor effects are recorded as inhibition of colony formation in relation to untreated controls. […]

BXF 1218 = assay: Clonogenic assay, BXF 1218; settings: Homo sapiens, Bladder, Transitional cell carcinoma, soft agar, read-out: IC50 (colony formation)
Procedure: as §3

MEXF 462 = assay: Clonogenic assay, MEXF 462; settings: Homo sapiens, Amelanotic melanoma, soft agar, read-out: IC50 (colony formation)
Procedure: as §3

LXFA 737 = assay: Clonogenic assay, LXFA 737; settings: Homo sapiens, Lung, non-small cell, Adenocarcinoma, soft agar, read-out: IC50 (colony formation)
Procedure: as §3

GXF 209 = assay: Clonogenic assay, GXF 209; settings: Homo sapiens, Stomach, Signet-ring cell carcinoma, soft agar, read-out: IC50 (colony formation)
Procedure: as §3

BXF 1258 = assay: Clonogenic assay, BXF 1258; settings: Homo sapiens, Bladder, Transitional cell carcinoma, soft agar, read-out: IC50 (colony formation)
Procedure: as §3

SKBR3 = assay: Cell proliferation assay, SKBR3 (breast); settings: Homo sapiens, SK-BR-3, 72 hours in presence of compound
Procedure: as §1, §2

LXFA 1012 = assay: Clonogenic assay, LXFA 1012; settings: Homo sapiens, Lung, non-small cell, Adenocarcinoma, soft agar, read-out: IC50 (colony formation)
Procedure: as §3

LEXF JURKAT = assay: Clonogenic assay, LEXF JURKAT; settings: Homo sapiens, Leukemia, T cell leukemia, soft agar, read-out: IC50 (colony formation)
Procedure: as §3

H1975 = assay: Cell proliferation assay, H1975 (lung); settings: Homo sapiens, NCI-H1975, 72 hours in presence of compound
Procedure: as §1, §2

MV4:11 = assay: Cell proliferation assay, MV4:11 (leukemia); settings: Homo sapiens, 72 hours in presence of compound
Procedure: as §1, §2

K562 = assay: Cell proliferation assay, K562 (leukemia); settings: Homo sapiens, 72 hours in presence of compound
Procedure: as §1, §2

LXFS 660 = assay: Clonogenic assay, LXFS 660; settings: Homo sapiens, Lung, small cell, Small cell lung carcinoma, soft agar, read-out: IC50 (colony formation)
Procedure: as §3

LXFA 629 = assay: Clonogenic assay, LXFA 629; settings: Homo sapiens, Lung, non-small cell, Adenocarcinoma, soft agar, read-out: IC50 (colony formation)
Procedure: as §3

A2780 = assay: Cell proliferation assay, A2780 (ovarian); settings: Homo sapiens, 72 hours in presence of compound
Procedure: as §1, §2

OPM-2 = assay: Cell proliferation assay, OPM-2 (multiple myeloma); settings: Homo sapiens, 72 hours in presence of compound
Procedure: as §1, §2

SXF 1301 = assay: Clonogenic assay, SXF 1301; settings: Homo sapiens, Sarcoma, Malignant rhabdomyosarcoma, soft agar, read-out: IC50 (colony formation)
Procedure: as §3

LEXF K562 = assay: Clonogenic assay, LEXF K562; settings: Homo sapiens, Chronic myelogenous leukemia, soft agar, read-out: IC50 (colony formation)
Procedure: as §3

SXF 1186 = assay: Clonogenic assay, SXF 1186; settings: Homo sapiens, Sarcoma, Osteoblastic osteosarcoma, soft agar, read-out: IC50 (colony formation)
Procedure: as §3

SXF 1410 = assay: Clonogenic assay, SXF 1410; settings: Homo sapiens, Sarcoma, Fibroblastic osteosarcoma, soft agar, read-out: IC50 (colony formation)
Procedure: as §3

## COc1cccc(-c2ccccc2[C@H]2Cc3nc(N)nc(C)c3C(=O)N2)n1 [(R)-2-amino-7-[2-(6-methoxy-pyridin-2-yl)-phenyl]-4-methyl-7,8-dihydro-6H-pyrido[4,3-d]pyrimidin-5-one]
MCF-7
  GI50: 0.008 µM
MAXF 1384
  IC50: 0.014 µM
BXF 1218
  IC50: 0.026 µM
MEXF 462
  IC50: 0.065 µM
LXFA 737
  IC50: 0.026 µM
GXF 209
  IC50: 0.028 µM
BXF 1258
  IC50: 0.316 µM
SKBR3
  GI50: 0.018 µM
LXFA 1012
  IC50: > 1 µM
LEXF JURKAT
  IC50: 0.004 µM
H1975
  GI50: 0.033 µM
MV4:11
  GI50: 0.004 µM
K562
  GI50: 0.024 µM
LXFS 660
  IC50: 0.006 µM
LXFA 629
  IC50: 0.027 µM
A2780
  GI50: 0.027 µM
OPM-2
  GI50: 0.013 µM
SXF 1301
  IC50: 0.026 µM
LEXF K562
  IC50: 0.013 µM
SXF 1186
  IC50: 0.021 µM
SXF 1410
  IC50: > 1 µM
